Source: ChEMBL document CHEMBL1150984, “2,4,5- triarylimidazole inhibitors of IL-1 biosynthesis” (Bioorg Med Chem Lett, 1995)

Target: T1, Polyunsaturated fatty acid 5-lipoxygenase (Rattus norvegicus, UniProt P12527)
T1 sequence (P12527 whole entry): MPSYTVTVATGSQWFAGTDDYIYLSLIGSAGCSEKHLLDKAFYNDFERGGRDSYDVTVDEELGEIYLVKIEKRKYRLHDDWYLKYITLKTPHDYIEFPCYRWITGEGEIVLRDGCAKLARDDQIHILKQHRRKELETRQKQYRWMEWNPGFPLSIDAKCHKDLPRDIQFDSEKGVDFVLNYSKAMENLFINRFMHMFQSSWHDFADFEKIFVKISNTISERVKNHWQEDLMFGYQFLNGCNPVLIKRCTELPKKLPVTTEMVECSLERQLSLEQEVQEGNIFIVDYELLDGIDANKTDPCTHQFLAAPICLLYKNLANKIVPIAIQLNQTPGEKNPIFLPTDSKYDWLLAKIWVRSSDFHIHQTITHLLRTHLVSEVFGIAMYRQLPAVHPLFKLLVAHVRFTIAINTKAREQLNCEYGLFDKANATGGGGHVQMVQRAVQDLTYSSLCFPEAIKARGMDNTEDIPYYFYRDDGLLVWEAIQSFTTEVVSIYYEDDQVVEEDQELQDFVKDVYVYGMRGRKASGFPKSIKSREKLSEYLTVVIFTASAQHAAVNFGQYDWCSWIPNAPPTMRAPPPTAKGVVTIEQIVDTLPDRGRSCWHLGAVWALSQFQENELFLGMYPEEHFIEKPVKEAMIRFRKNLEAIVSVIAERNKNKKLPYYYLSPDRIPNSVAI
Test: biochemical
Type: cell-based, RBL-1
Description: Inhibitory activity against 5-lipoxygenase enzyme from RBL-1 cells

IC50 [µM]	Compound
7.2	C[S+]([O-])c1ccc(-c2nc(-c3ccc(F)cc3)c(-c3ccnc4ccccc34)[nH]2)cc1 (stereo unspecified)
3.8	N#CN=C(N)Cc1ccc(-c2nc(-c3ccncc3)c(-c3ccc(F)cc3)[nH]2)cc1
5.6	CN(C)c1ccc(-c2nc(-c3ccc(F)cc3)c(-c3ccncc3)[nH]2)cc1
7.2	CC1(C)NC(c2ccc(-c3nc(-c4ccc(F)cc4)c(-c4ccncc4)[nH]3)cc2)=NO1
4.1	Oc1ccccc1-c1nc(-c2ccc(F)cc2)c(-c2ccncc2)[nH]1
0.8	CN(Cc1ccccc1)Cc1ccc(-c2nc(-c3ccncc3)c(-c3ccc(F)cc3)[nH]2)cc1
